Test results as given in US6221865A, “Inhibitors of protein isoprenyl transferases” (priority 1998, dated 2001).
Counter-ions that a name gives are not always drawn. Like-named read-outs stand apart in the source and are kept apart here. Blank lines part the entries; values can stand above or below the compound they belong to.

Target: T1, protein farnesyltransferase (Rattus norvegicus, UniProt Q02293+Q04631)
T1 construct: The enzyme is purified according to Reiss, Y., et al., Cell, 62: 81-88 (1990), utilizing steps one through three; from tissue; host or cells: rat brain
T1 sequence (Q02293 whole entry, one chain of several): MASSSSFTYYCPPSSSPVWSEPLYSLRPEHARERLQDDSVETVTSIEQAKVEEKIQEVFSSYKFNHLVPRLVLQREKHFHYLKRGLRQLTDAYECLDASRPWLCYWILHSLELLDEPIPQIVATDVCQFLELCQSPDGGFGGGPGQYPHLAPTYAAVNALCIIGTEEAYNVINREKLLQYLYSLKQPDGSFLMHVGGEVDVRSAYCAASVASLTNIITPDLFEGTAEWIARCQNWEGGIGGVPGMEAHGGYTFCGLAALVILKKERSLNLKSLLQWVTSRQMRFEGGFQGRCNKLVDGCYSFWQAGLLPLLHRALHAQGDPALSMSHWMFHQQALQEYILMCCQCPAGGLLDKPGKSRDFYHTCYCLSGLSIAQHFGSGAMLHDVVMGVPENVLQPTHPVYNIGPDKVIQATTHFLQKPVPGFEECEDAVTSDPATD
Assay: Inhibition of farnesyltransferase (scintillation proximity assay, rat brain enzyme, biotin-K Ras B fragment substrate)
Format: biochemical
Conditions: for inhibition at 1 µM: read-out: % inhibition of farnesyltransferase at 1 × 10^-6 M; for inhibition at 1 µM / % inhibition of farnesyltransferase at 1 × 10^-6 M: 1 × 10^-6 M (Table 2); for % inhibition of farnesyltransferase at 1 × 10^-8 M: 1 × 10^-8 M (Table 4); for % inhibition of farnesyltransferase at 1 × 10^-5 M: 1 × 10^-5 M (Table 1); for inhibition at 0.01 µM: read-out: % inhibition at 0.01 μM (**), Table 6, ** = 0.01 μM (footnote), title prints 0.01 mM
Summary of the method: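 Enzyme from rat brain, partly purified (steps one to three), assayed by SPA kit using 0.1 mM final biotin-K Ras B peptide as prenyl acceptor rather than biotin-lamin. Activity given as percent inhibition.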

[1] = read-out: % inhibition at 0.1 μM (*), Table 6, * = 0.1 μM (footnote), title prints 0.1 mM
[2] = read-out: % inhibition of farnesyltransferase at 1 × 10^-7 M, 1 × 10^-7 M (Table 3)

Compound: CSCC[C@H](NC(=O)c1ccc(/C=C/CC2CCCCC2)cc1-c1ccccc1C)C(=O)O [Example 471, N-[4-(3-cyclohexylprop-1-enyl)-2-(2-methylphenyl)benzoyl]methionine lithium salt]
inhibition at 1 µM: 94%

Compound: CSCC[C@H](NC(=O)c1ccc(CNc2ccc(CCO)cc2)cc1-c1ccccc1)C(=O)O [Example 694]
% inhibition of farnesyltransferase at 1 × 10^-6 M: 45%

Compound: CSCC[C@H](NC(=O)c1ccc(CN(Cc2ccccc2)Cc2cccc(Oc3ccccc3)c2)cc1-c1ccccc1C)C(=O)O [Example 514]
% inhibition of farnesyltransferase at 1 × 10^-6 M: 94%

Compound: CSCC[C@H](NC(=O)c1ccc(CNc2cc(C)cc(C)c2)cc1-c1ccccc1)C(=O)O [Example 709]
% inhibition of farnesyltransferase at 1 × 10^-5 M: 55%

Compound: CSCC[C@H](NC(=O)c1ccc(CNc2nnc(C)s2)cc1-c1ccccc1)C(=O)O [Example 371]
% inhibition of farnesyltransferase at 1 × 10^-5 M: 66%

Compound: CSCC[C@H](NC(=O)c1ccc(COCc2ccc(Br)o2)cc1-c1ccccc1C)C(=O)[O-].[Li+] [Example 434]
% inhibition of farnesyltransferase at 1 × 10^-7 M (1 × 10^-7 M (Table 3)): 93%

Compound: CSCC[C@H](NC(=O)c1ccc(CNc2ccc3c(c2)Cc2ccccc2-3)cc1-c1ccccc1)C(=O)O [Example 706]
% inhibition of farnesyltransferase at 1 × 10^-5 M: 53%

Compound: CSCC[C@H](NC(=O)c1ccc(COCCc2ccc(Cl)cc2Cl)cc1-c1ccccc1C)C(=O)[O-].[Li+] [Example 591]
% inhibition of farnesyltransferase at 1 × 10^-8 M: 82%

Compound: CSCC[C@H](NC(=O)c1ccc(CNc2cccc(I)c2)cc1-c1ccccc1)C(=O)O [Example 677]
% inhibition of farnesyltransferase at 1 × 10^-6 M: 37%

Compound: CSCC[C@H](NC(=O)c1ccc(CNc2ccc3c(c2)CCC3)cc1-c1ccccc1)C(=O)O [Example 705]
% inhibition of farnesyltransferase at 1 × 10^-5 M: 72%

Compound: Cc1ccccc1-c1cc(CNC(C)(C)Cc2ccccc2)ccc1C(=O)N[C@@H](CCS(C)(=O)=O)C(=O)O [Example 311]
inhibition at 1 µM: 97%

Compound: CSCC[C@H](NC(=O)c1ccc(CN[C@@H](/C=C\CC(C)C)CC2CCCCC2)cc1-c1ccccc1)C(=O)O [Example 665]
% inhibition of farnesyltransferase at 1 × 10^-6 M: 55%

Compound: CCSC[C@H](CC1CCCCC1)OCc1ccc(C(=O)N[C@@H](CCSC)C(=O)O)c(-c2ccccc2C)c1 [Example 606]
% inhibition of farnesyltransferase at 1 × 10^-8 M: 93%

Compound: CCn1cc(NCc2ccc(C(=O)N[C@@H](CCSC)C(=O)O)c(-c3ccccc3)c2)c(=O)n1CC [Example 364]
% inhibition of farnesyltransferase at 1 × 10^-5 M: 69%

Compound: CSCC[C@H](NC(=O)c1ccc(C=Cc2ccccc2Oc2ccccc2)cc1-c1ccccc1C)C(=O)O [Example 453, N-[4-(2-(2-phenoxyphenyl)ethen-1-yl)-2-(2-methylphenyl)benzoyl]methionine lithium salt]
inhibition at 1 µM: 90%

Compound: CSCC[C@H](NC(=O)c1ccc(OCCOC2CCCCC2)cc1-c1ccccc1C)C(=O)[O-].[Li+] [Example 565]
% inhibition of farnesyltransferase at 1 × 10^-6 M: 94%

Compound: CSCC[C@H](NC(=O)c1ccc(COCc2ccc(-c3ccc(C(F)(F)F)cc3)o2)cc1-c1ccccc1C)C(=O)[O-].[Li+] [Example 445]
% inhibition of farnesyltransferase at 1 × 10^-7 M (1 × 10^-7 M (Table 3)): 94%

Compound: CSCC[C@H](NC(=O)c1ccc(COC2(c3ccccc3)CCN(C(=O)OC(C)(C)C)CC2)cc1-c1ccccc1C)C(=O)[O-].[Li+] [Example 816]
% inhibition of farnesyltransferase at 1 × 10^-6 M: 87%

Compound: CSCC[C@H](NC(=O)c1ccc(CNc2cccc(CCC(=O)O)c2)cc1-c1ccccc1)C(=O)O [Example 685]
% inhibition of farnesyltransferase at 1 × 10^-5 M: 55%

Compound: CSCC[C@H](NC(=O)c1ccc(CC(CO)CCC2CCCCC2)cc1-c1ccccc1C)C(=O)O (stereo partly shown) [Example 1299, N-[4-(2-(2-Cyclohexylethyl)-1-hydroxyprop-3-yl)-2-(2-methylphenyl)benzoyl]methionine Lithium Salt]
inhibition at 0.01 µM: 96%

Compound: COc1ccc(-c2ccc(COCc3ccc(C(=O)N[C@@H](CCSC)C(=O)[O-])c(-c4ccccc4C)c3)o2)cc1.[Li+] [Example 446]
% inhibition of farnesyltransferase at 1 × 10^-7 M (1 × 10^-7 M (Table 3)): 91%

Compound: Cc1ccccc1-c1cc(CCc2ccc(Oc3ccccc3)cc2)ccc1C(=O)N[C@@H](CC[S+](C)[O-])C(=O)O (stereo partly shown) [Example 463, N-[4-(2-(4-phenoxyphenyl)ethyl)-2-(2-methylphenyl)benzoyl]-2-amino-4-methylsulfinylbutanoic acid lithium salt]
inhibition at 1 µM: 91%

Compound: CSCC[C@H](NC(=O)c1ccc(CNc2ccc(O)cc2)cc1-c1ccccc1)C(=O)O [Example 689]
% inhibition of farnesyltransferase at 1 × 10^-5 M: 73%

Compound: CSCC[C@H](NC(=O)c1ccc(CSc2ncnc3[nH]ncc23)cc1-c1ccccc1C)C(=O)O [Example 746]
% inhibition of farnesyltransferase at 1 × 10^-7 M (1 × 10^-7 M (Table 3)): 84%

Compound: CSCC[C@H](NC(=O)c1ccc(COCCc2ccccc2Cl)cc1-c1ccccc1C)C(=O)[O-].[Li+] [Example 588]
% inhibition of farnesyltransferase at 1 × 10^-8 M: 68%

Compound: CSCC[C@H](NC(=O)c1ccc(CNc2cccc(C)c2)cc1-c1ccccc1)C(=O)O [Example 674]
% inhibition of farnesyltransferase at 1 × 10^-5 M: 40%

Compound: COc1cc(Cl)ccc1C(=O)Nc1ccc(C(=O)N[C@@H](CCSC)C(=O)O)c(-c2ccccc2)c1 [Example 753]
% inhibition of farnesyltransferase at 1 × 10^-5 M: 55%

Compound: CSCC[C@H](NC(=O)c1ccc(CN[C@H](CC2CCCCC2)[C@H](O)[C@H](O)CC(C)C)cc1-c1ccccc1)C(=O)O [Example 715]
% inhibition of farnesyltransferase at 1 × 10^-5 M: 67%

Compound: CSCC[C@H](NC(=O)c1ccc(CN(C(C)C)C(C)(C)CC2CCCCC2)cc1-c1ccccc1C)C(=O)O [Example 318]
inhibition at 1 µM: 98%

Compound: CSCC[C@H](NC(=O)c1ccc(S(=O)(=O)N(Cc2ccccc2)c2ccccc2)cc1-c1ccccc1C)C(=O)O [Example 768, N-[4-(N-Benzyl-N-phenylaminosulfonyl)-2-(2-methylphenyl)benzoyl]methionine lithium salt]
inhibition at 1 µM: 67%

Compound: N-[4-(2-fluoren-4-ylethyl)-2-(2-methylphenyl)benzoyl]methionine lithium salt [Example 464]
% inhibition of farnesyltransferase at 1 × 10^-7 M (1 × 10^-7 M (Table 3)): 86%

Compound: Cc1ccccc1-c1cc(CN(C(C)C)C2(Cc3ccccc3)CC2)ccc1C(=O)N[C@@H](CCS(C)(=O)=O)C(=O)O [Example 327]
inhibition at 1 µM: 97%

Compound: CSCC[C@H](NC(=O)c1ccc(CSc2ccc(F)cc2)cc1-c1ccccc1C)C(=O)O [Example 740]
% inhibition of farnesyltransferase at 1 × 10^-7 M (1 × 10^-7 M (Table 3)): 94%

Compound: CSCC[C@H](NC(=O)c1ccc(CNCCSc2ccccc2)cc1-c1ccccc1)C(=O)O [Example 667]
% inhibition of farnesyltransferase at 1 × 10^-6 M: 83%

The remaining lines, values ahead:

% inhibition of farnesyltransferase at 1 × 10^-7 M (1 × 10^-7 M (Table 3)): 93%
Compound: CSCC[C@H](NC(=O)c1ccc(COCC2CCC(c3ccc(Cl)cc3)O2)cc1-c1ccccc1C)C(=O)O (stereo partly shown) [Example 822]

% inhibition of farnesyltransferase at 1 × 10^-8 M: 95%
Compound: CSCC[C@H](NC(=O)c1ccc(CN[C@H](CSC2CCCCC2)CC2CCCCC2)cc1-c1ccccc1C)C(=O)O [Example 766]

inhibition at 1 µM: 94%
Compound: CSCC[C@H](NC(=O)c1ccc(/C=C/c2cnc(Oc3ccccc3)cn2)cc1-c1ccccc1C)C(=O)O [Example 812, lithium salt]

% inhibition of farnesyltransferase at 1 × 10^-5 M: 40%
Compound: COc1ccc(Br)c(C(=O)Nc2ccc(C(=O)N[C@@H](CCSC)C(=O)O)c(-c3ccccc3)c2)c1 [Example 754]

inhibition at 0.01 µM: 74%
Compound: CSCC[C@H](NC(=O)c1ccc(CN2CCOC[C@@H]2COCC2CCCCC2)cc1-c1ccccc1C)C(=O)O [Example 1109, N-[4-(3(S)-cyclohexylmethoxymethylmorpholin-4-ylmethyl)-2-(2-methylphenyl)benzoyl]methionine]

% inhibition of farnesyltransferase at 1 × 10^-8 M: 68%
Compound: CSCC[C@H](NC(=O)c1ccc(CN(Cc2cncs2)S(=O)(=O)c2ccc(C)cc2)cc1-c1ccccc1C)C(=O)O [Example 877]

inhibition at 0.1 µM [1]: 72%
Compound: COC1CC(COCc2ccccc2)N(Cc2ccc(C(=O)N[C@@H](CCSC)C(=O)O)c(-c3ccccc3C)c2)C1 (stereo partly shown) [Example 1121, N-[4-(2-benzyloxymethyl-4-methoxypyrrolidin-1-ylmethyl)-2-(2-methylphenyl)benzoyl]methionine]

% inhibition of farnesyltransferase at 1 × 10^-7 M (1 × 10^-7 M (Table 3)): 71%
Compound: CCCCS(=O)(=O)N(Cc1ccc(C(=O)N[C@@H](CCSC)C(=O)O)c(-c2ccccc2C)c1)[C@H](CSCC)CC1CCCCC1 [Example 950]

inhibition at 0.1 µM [1]: 89%
Compound: CCCCP(=O)(CCCC)Cc1ccc(C(=O)N[C@@H](CCSC)C(=O)O)c(-c2ccccc2C)c1 [Example 1222, N-[4-(Dibutyl(oxophosphinyl)methyl)-2-(2-methylphenyl)benzoyl]methionine]

inhibition at 0.1 µM [2]: 84%
Compound: CSCC[C@H](NC(=O)c1ccc(CN2CCCC(OCC3CCCCC3)C2)cc1-c1ccccc1C)C(=O)O (stereo partly shown) [Example 990, N-[4-(3-cyclohexylmethoxypiperidin-1-ylmethyl)-2-(2-methylphenyl)benzoyl]methionine]

inhibition at 0.1 µM [2]: 97%
Compound: CSCC[C@H](NC(=O)c1ccc(/C=C/c2ccc(Oc3ccccc3[N+](=O)[O-])cc2)cc1-c1ccccc1C)C(=O)O [Example 856, N-[4-(2-(4-(2-nitrophenoxy)phenyl)ethen-1-yl)-2-(2-methylphenyl)benzoyl]methionine]

% inhibition of farnesyltransferase at 1 × 10^-8 M: 96%
Compound: CSCC[C@H](NC(=O)c1ccc(CN(Cc2ccccc2)c2ccc([N+](=O)[O-])cc2)cc1-c1ccccc1C)C(=O)O [Example 843]

inhibition at 1 µM: 41%
Compound: CSCC[C@H](NC(=O)c1ccc(S(=O)(=O)NC2CCN(Cc3ccccc3)CC2)cc1-c1ccccc1C)C(=O)O [Example 773, lithium salt]

% inhibition of farnesyltransferase at 1 × 10^-7 M (1 × 10^-7 M (Table 3)): 85%
Compound: CCCCN(CCCC)C(=O)CNCc1ccc(C(=O)N[C@@H](CCSC)C(=O)O)c(-c2ccccc2C)c1 [Example 912]

% inhibition at 0.1 μM (*) (Table 6, * = 0.1 μM (footnote), title prints 0.1 mM): 83%
Compound: CCC(=O)N(CCCc1ccc(C(=O)N[C@@H](CCSC)C(=O)O)c(-c2ccccc2C)c1)C1CCCCC1 [Example 1145]
